Data set [1] is described as follows: Aqueous solubility and pH of the salt. The class given is physicochemical. An excerpt: The synthetic approach to the trisubstituted series adapts previously published procedures to simplify purification and increase yields of both intermediates and final compounds (Scheme 1). 5,5-Dimethyl-1,3-dibromohydantoin was used for the regioselective bromination of the starting material, enabling more efficient and convenient purification. The separation of final products was achieved using column chromatography, giving a 26% overall yield for CM03.
CM03 was then converted to a mixed hydrochloride/formate salt in order to enhance its aqueous solubility. At a concentration of 5 mg/mL, the pH of the CM03 salt solution was 6.95.

The nature of data set [2]: Maximum tolerated dose (MTD) study. In kind it is in vivo. The following applies: dose-escalation MTD study, IV, CD-1 nude mice. The procedure: To determine if the in vitro activity of CM03 was paralleled in vivo, we explored the activity of CM03 in a mouse xenograft model of PDAC. We have previously reported that the maximum tolerated dosage (MTD) for intravenous (IV) administration of MM41 is 25 mg/kg.[33] CM03 was well tolerated, up to a dosage of 45–50 mg/kg, as judged by a dose-escalation MTD study. A therapeutic schedule of two CM03 intravenous (IV) doses was explored using a subcutaneous MIA PaCa-2 pancreatic tumor xenograft model derived from the human cell line used in the cell growth inhibition studies. A group size of eight CD-1 nude mice was used, and dosing was conducted at 10 and 15 mg/kg, each twice weekly, over a period of 4 weeks (28 days: 8 doses). Two further groups were given either MM41 or gemcitabine at 15 mg/kg and received the same dose regimen. […] IVIS imaging of treated mice was performed by taking account of the intrinsic fluorescence of CM03. […] Thus, in contrast to MM41 and gemcitabine, the higher-dose CM03 treatment results in a statistically significant (p < 0.001) antitumor effect, which persisted long after dosing had ceased, up to the termination of the xenograft experiment (62 days).
The maximum tolerated dose (MTD) studies of MM41 and CM03 were performed in CD-1 nude mice. […] Mice were monitored visually for signs of adverse effects over periods of up to 72 h. […]

The test system of data set [3] is PANC-1 cells. Put plainly: BG4 and 53BP1 immunofluorescence microscopy. The class given is cell-based, human. The source says: Because many established G4-stabilizing ligands induce transcription and replication-coupled DNA damage in the vicinity of G4-forming sequences,[44] we investigated whether CM03 treatment affects cellular G4 occurrence and/or induces a DNA damage response. To do this, we treated asynchronous PANC-1 cells with CM03 and performed immunofluorescence staining using the G4-specific antibody BG4[18] and an antibody against the DNA damage and double-strand break (DSB) marker 53BP1[45] followed by 3D image construction and analysis. […] This further confirms that CM03 has a direct action at G4 sites to increase G4 stabilization. Consistent with the capability of unresolved endogenous genomic G4 sites[46] and small molecule-stabilized G4s to obstruct DNA replication,[44] a 2-fold increase in the number of 53BP1 foci was only apparent after 24 h treatment with CM03 (11 ± 2 compared to 21 ± 3 53BP1 foci) (Figure 4a,c). To determine if CM03 induced DNA damage directly at G4 sites, we calculated the extent of co-localization between BG4 and 53BP1 foci using object-based image co-localization analysis.
BG4 and 53BP1 immunofluorescence experiments were performed essentially as described,[16],[18] with slight modifications. In brief, 8 × 10^4 PANC-1 cells were seeded overnight on circular no. 1.5 coverslips per well in 12-well plates. Next day, cells were incubated with 400 nM CM03 (or left untreated) in 1 mL of media at 37 °C for 6 and 24 h and then fixed with 4 (v/v) % freshly prepared paraformaldehyde in 1× PBS for 10 min at RT. Coverslips were washed 1× PBS, permeabilized with 0.1% (v/v) Triton-X100 in PBS for 10 min, washed with 1× PBS, and blocked with 2% (w/v) Marvel milk (Premier Foods plc) in PBS for 1 h at 37 °C. After blocking, coverslips were incubated with BG4 (20 nM) at 37 °C for 1 h, washed three times for 5 min with PBST (0.1% (v/v) Tween 20), and then incubated with 37 °C for 1 h with rabbit α-FLAG 1:800 (CST, catalogue no. 2368) and mouse α-53BP1 1:500 (Millipore, catalogue no. MAB2803). […] Fluorescence illumination was with a xenon source and FITC, Cy5, and DAPI fluorescent filter cubes used to image BG4, 53BP1, and the nuclei, respectively. […] See extended methods, immunofluorescence, for the custom protocol designed for the BG4-53BP1 foci quantification and co-localization method. […]
For the putative G4 sequences (PQs) analysis, the occurrence of the canonical G4 motif (G≥3N1-7G≥3+N1-7G3≥N1-7G≥3), as previously defined 2,3, was calculated both in gene promoters (defined as 2 kilobases upstream of the transcription start site (TSS) and 100 bases downstream ) and gene bodies (exons and introns). […]

The target of data set [4] is hERG (Homo sapiens, UniProt Q12809). Put plainly: hERG liability (unpublished data).
Chain of hERG (Q12809 whole entry): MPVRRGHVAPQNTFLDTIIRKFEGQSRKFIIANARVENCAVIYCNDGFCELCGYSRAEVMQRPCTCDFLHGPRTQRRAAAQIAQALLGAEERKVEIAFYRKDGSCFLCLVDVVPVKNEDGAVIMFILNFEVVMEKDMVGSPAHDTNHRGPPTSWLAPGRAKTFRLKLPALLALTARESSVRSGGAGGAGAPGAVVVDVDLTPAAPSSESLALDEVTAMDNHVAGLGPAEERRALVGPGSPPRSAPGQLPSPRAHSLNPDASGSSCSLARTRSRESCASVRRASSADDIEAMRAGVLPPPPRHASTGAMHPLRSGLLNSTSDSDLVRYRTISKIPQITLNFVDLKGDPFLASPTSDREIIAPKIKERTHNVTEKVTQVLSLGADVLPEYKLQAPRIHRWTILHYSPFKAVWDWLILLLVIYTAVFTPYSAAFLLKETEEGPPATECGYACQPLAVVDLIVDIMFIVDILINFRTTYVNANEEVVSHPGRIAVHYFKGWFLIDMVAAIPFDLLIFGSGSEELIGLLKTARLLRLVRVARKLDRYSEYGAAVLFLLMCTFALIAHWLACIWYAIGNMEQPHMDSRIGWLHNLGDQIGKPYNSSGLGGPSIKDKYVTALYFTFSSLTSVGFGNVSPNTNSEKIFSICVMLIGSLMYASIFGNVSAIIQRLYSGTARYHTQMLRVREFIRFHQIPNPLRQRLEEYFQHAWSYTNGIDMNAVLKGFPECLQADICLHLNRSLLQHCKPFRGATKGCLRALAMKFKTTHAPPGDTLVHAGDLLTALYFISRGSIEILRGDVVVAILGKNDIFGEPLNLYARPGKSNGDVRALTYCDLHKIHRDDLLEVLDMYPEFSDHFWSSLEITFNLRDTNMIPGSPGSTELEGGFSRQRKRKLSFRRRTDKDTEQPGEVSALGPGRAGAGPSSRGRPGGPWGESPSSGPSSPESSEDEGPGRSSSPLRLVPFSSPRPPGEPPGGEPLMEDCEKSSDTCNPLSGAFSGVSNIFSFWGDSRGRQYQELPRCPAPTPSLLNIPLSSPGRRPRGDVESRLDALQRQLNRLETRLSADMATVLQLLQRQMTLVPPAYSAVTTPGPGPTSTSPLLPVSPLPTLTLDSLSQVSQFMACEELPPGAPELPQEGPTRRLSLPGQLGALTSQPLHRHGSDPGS

For `O=C1c2ccc3c4c(c(NCCN5CCCC5)cc(c24)C(=O)N1CCCN1CCOCC1)C(=O)N(CCCN1CCOCC1)C3=O` [CM03, 2,7-bis(3-morpholinopropyl)-4-((2-(pyrrolidin-1-yl)ethyl)amino)benzo[lmn][3,8]phenanthroline-1,3,6,8(2H,7H)-tetraone], the “pH of mixed chloride/formate salt” value in data set [1] is recorded as 6.9. Besides, the “pH of the CM03 salt solution” value in data set [1] (concentration of 5 mg/mL, mixed hydrochloride/formate salt) was 6.95. Also, the “well tolerated, up to a dosage of” value in data set [2] was in the range of 45 to 50 mg/kg. Moreover, in data set [3] (400 nM CM03, 6 h), the “number of nuclear BG4 foci” value is given as 393 ± 13. Moreover, in data set [3] (400 nM CM03, 24 h), the “number of 53BP1 foci” value is given as 21 ± 3, the “number of nuclear BG4 foci” value amounted to 444 ± 39 and the “total BG4 foci per nucleus associated with DNA damage foci” value is 1.4%. In addition, the hERG liabilities result in data set [4] was “neither MM41 nor CM03 show significant hERG liabilities”.

Values taken from article PMC5867665, “Targeting Multiple Effector Pathways in Pancreatic Ductal Adenocarcinoma with a G-Quadruplex-Binding Small Molecule” (Journal of Medicinal Chemistry, 2018).
